What all share (type): biochemical
The target of one assay is T1, MAO-A (Homo sapiens, UniProt P21397).
T1 construct: purchased Sigma-Aldrich Co. LLC
T1 sequence (P21397 1-527): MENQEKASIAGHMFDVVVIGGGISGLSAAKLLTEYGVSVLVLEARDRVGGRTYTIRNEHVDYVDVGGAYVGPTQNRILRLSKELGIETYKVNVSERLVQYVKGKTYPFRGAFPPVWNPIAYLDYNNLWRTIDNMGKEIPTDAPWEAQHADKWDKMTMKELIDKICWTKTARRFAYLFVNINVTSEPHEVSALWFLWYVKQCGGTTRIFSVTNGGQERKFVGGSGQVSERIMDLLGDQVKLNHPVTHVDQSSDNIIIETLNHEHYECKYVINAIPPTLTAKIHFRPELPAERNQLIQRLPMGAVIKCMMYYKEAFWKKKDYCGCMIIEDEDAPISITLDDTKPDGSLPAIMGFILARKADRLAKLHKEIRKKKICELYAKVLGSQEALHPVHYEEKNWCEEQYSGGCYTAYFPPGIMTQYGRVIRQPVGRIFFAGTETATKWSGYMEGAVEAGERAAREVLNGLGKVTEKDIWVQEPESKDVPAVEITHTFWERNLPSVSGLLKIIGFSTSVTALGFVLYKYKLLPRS
Nature of the assay: Measurement of MAO-A inhibitory activity (MAO-Glo Assay). The gist of the method: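 Luminescent MAO-Glo read-out: % inhibition computed from counts relative to enzyme-only control and enzyme-free blank. Compound and 400 ng MAO-A in HEPES pH 7.5 with 5% glycerol stood 10 min at room temperature before MAO substrate (160 μM stock) started a 60 min reaction.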

A further assay deals with T2, MAO-B (Homo sapiens, UniProt P27338).
T2 construct: purchased Sigma-Aldrich Co. LLC
T2 sequence (P27338 1-520): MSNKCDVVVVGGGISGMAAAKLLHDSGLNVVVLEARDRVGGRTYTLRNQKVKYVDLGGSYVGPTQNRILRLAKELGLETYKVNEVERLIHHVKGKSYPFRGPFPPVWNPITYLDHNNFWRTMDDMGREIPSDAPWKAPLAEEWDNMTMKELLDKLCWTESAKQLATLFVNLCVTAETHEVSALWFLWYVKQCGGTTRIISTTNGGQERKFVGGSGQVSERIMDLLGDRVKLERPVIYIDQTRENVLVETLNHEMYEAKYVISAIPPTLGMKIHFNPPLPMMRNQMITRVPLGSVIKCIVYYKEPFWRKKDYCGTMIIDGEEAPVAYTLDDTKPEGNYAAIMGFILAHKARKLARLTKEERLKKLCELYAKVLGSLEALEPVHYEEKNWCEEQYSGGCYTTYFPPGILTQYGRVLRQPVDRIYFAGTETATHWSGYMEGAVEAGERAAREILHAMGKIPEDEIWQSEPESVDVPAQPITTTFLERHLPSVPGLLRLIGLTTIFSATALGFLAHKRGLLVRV
Nature of the assay: Measurement of MAO-B inhibitory activity (MAO-Glo Assay). The gist of the method:
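Percent inhibition was calculated from luciferin-based luminescence, corrected with a blank lacking enzyme and a control lacking compound. The reaction ran 60 min at room temperature after adding MAO substrate (16 µM as added). This followed a 10 min compound–enzyme preincubation in HEPES pH 7.5 buffer.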

In a further assay the target is T3, human LSD1(171-852) (Homo sapiens, UniProt O60341).
T3 construct: to give hLSD1(171-852) purified product; made in house; host or cells: Escherichia coli C43(DE3) pLysS
Nature of the assay: Measurement of LSD1 inhibitory activity (time-resolved fluorescence, biotin-histone H3 mono methylated K4 peptide). The note with it: read-out: LSD1 IC50 value.

SMILES strings stand for the structures. Structures can show the parent of a compound that is named as a salt. Bounds are passed on as bounds.

With `O=C(Nc1ccc([C@@H]2C[C@H]2NCC2CC2)cc1)c1ccc(OCc2ccccc2)cc1` (relative stereo) [Example 71, 4-(benzyloxy)-N-(4-{trans-2-[(cyclopropylmethyl)amino]cyclopropyl}phenyl)benzamide hydrochloride], the IC50 (usually the concentration that inhibits the measured activity by half) against MAO-A is above 10 µM; against MAO-B, above 10 µM; on human LSD1(171-852) it was below 0.1 µM.
In the case of `O=C(Nc1ccc([C@@H]2C[C@H]2NCc2cscn2)cc1)c1cccc(C(F)(F)F)c1` (relative stereo) [Example 72, N-(4-{trans-2-[(1,3-thiazol-4-ylmethyl)amino]cyclopropyl}phenyl)-3-(trifluoromethyl)benzamide dihydrochloride], the IC50 is 3.1 µM at MAO-A, above 10 µM on MAO-B and below 0.1 µM on human LSD1(171-852).
With `O=C(Nc1ccc([C@@H]2C[C@H]2NC2CCN(Cc3ccccc3)CC2)cc1)c1cccc(C(F)(F)F)c1` (relative stereo) [Example 74, N-(4-{trans-2-[(1-benzylpiperidin-4-yl)amino]cyclopropyl}phenyl)-3-(trifluoromethyl)benzamide dihydrochloride], the IC50 is above 10 µM at MAO-A, above 10 µM against MAO-B and below 0.1 µM at human LSD1(171-852).
On to `O=C(Nc1ccc([C@@H]2C[C@H]2NC2CCN(c3ccccc3)CC2)cc1)c1cccc(C(F)(F)F)c1` (relative stereo) [Example 75, N-(4-{trans-2-[(1-phenylpiperidin-4-yl)amino]cyclopropyl}phenyl)-3-(trifluoromethyl)benzamide dihydrochloride], for which the IC50 is above 10 µM at MAO-A, above 10 µM against MAO-B and below 0.1 µM at human LSD1(171-852).
In the case of `O=C(Nc1ccc([C@@H]2C[C@H]2NC2CCNC(c3ccccc3)C2)cc1)c1cccc(C(F)(F)F)c1` (relative stereo) [Example 77, N-(4-{trans-2-[(2-phenylpiperidin-4-yl)amino]cyclopropyl}phenyl)-3-(trifluoromethyl)benzamide dihydrochloride], the IC50 was 9.9 µM on MAO-A, above 10 µM against MAO-B and below 0.1 µM on human LSD1(171-852).
The corresponding values for `O=C(Nc1ccc([C@@H]2C[C@H]2NCC2CC2)cc1)c1ccc(-c2ccccc2Cl)cc1` (relative stereo) [Example 78, 2′-chloro-N-(4-{trans-2-[(cyclopropylmethyl)amino]cyclopropyl}phenyl)biphenyl-4-carboxamide hydrochloride] are above 10 µM, above 10 µM and below 0.1 µM.
The corresponding values for `O=C(Nc1ccc(C(=O)Nc2ccc([C@@H]3C[C@H]3NCC3CC3)cc2)cc1)c1ccccc1` (relative stereo) [Example 80, N-(4-{trans-2-[(cyclopropylmethyl)amino]cyclopropyl}phenyl)-4-[(phenylcarbonyl)amino]benzamide hydrochloride] are above 10 µM, above 10 µM and below 0.1 µM.
As to `Cc1cc(NC(=O)c2ccccc2)ccc1[C@@H]1C[C@H]1NCC1CC1` (relative stereo) [Example 82, N-(4-{trans-2-[(cyclopropylmethyl)amino]cyclopropyl}-3-methylphenyl)benzamide hydrochloride], the IC50 was above 10 µM on MAO-A, above 10 µM on MAO-B and below 0.1 µM on human LSD1(171-852).
With `CN(C)c1cccc(C(=O)Nc2ccc([C@@H]3C[C@H]3NCC3CC3)cc2)c1` (relative stereo) [Example 83, N-(4-{trans-2-[(cyclopropylmethyl)amino]cyclopropyl}phenyl)-3-(dimethylamino)benzamide bis(trifluoroacetate)], the IC50 at MAO-A was above 10 µM; against MAO-B it was above 10 µM; on human LSD1(171-852), below 0.1 µM.
Turning to `CN(C)c1ccc(C(=O)Nc2ccc([C@@H]3C[C@H]3NCC3CC3)cc2)cc1` (relative stereo) [Example 84, N-(4-{trans-2-[(cyclopropylmethyl)amino]cyclopropyl}-phenyl)-4-(dimethylamino)-benzamide], the IC50 at MAO-A was above 10 µM; against MAO-B, above 10 µM; at human LSD1(171-852) it was below 0.1 µM.
Consider `O=C(Nc1ccc([C@@H]2C[C@H]2NCC2CC2)cc1)c1ccc2c(c1)CCCC2` (relative stereo) [Example 85, N-(4-{trans-2-[(cyclopropylmethyl)amino]cyclopropyl}-phenyl)-5,6,7,8-tetrahydronaphtha-lene-2-carboxamide], for which the results for the IC50 on MAO-A, against MAO-B and at human LSD1(171-852) were 9.1 µM, 4.9 µM and below 0.1 µM, respectively.
Take `CC1=NN(c2ccc(C(=O)Nc3ccc([C@@H]4C[C@H]4NCC4CC4)cc3)cc2)C(=O)C1` (relative stereo) [Example 86, N-(4-{trans-2-[(cyclopropylmethyl)amino]cyclopropyl}-phenyl)-4-(3-methyl-5-oxo-4,5-dihydro-1H-pyrazol-1-yl)benzamide]: the IC50 against MAO-A is above 10 µM; on MAO-B, above 10 µM; on human LSD1(171-852) it was 1 µM.
Take `CS(=O)(=O)c1ccc(C(=O)Nc2ccc([C@@H]3C[C@H]3NCC3CC3)cc2)cc1` (relative stereo) [Example 87, N-(4-{trans-2-[(cyclopropylmethyl)amino]cyclopropyl}-phenyl)-4-(methylsulfonyl)-benzamide]: the IC50 is above 10 µM on MAO-A, above 10 µM on MAO-B and below 0.1 µM on human LSD1(171-852).
In the case of `NS(=O)(=O)c1ccc(C(=O)Nc2ccc([C@@H]3C[C@H]3NCC3CC3)cc2)cc1` (relative stereo) [Example 88, N-(4-{trans-2-[(cyclopropylmethyl)amino]cyclopropyl}-phenyl)-4-sulfamoylbenzamide], the IC50 was above 10 µM at MAO-A, above 10 µM on MAO-B and below 0.1 µM on human LSD1(171-852).
With `O=C(Nc1ccc([C@@H]2C[C@H]2NCC2CC2)cc1)c1ccc(C2CCCCC2)cc1` (relative stereo) [Example 89, 4-cyclohexyl-N-(4-{trans-2-[(cyclopropylmethyl)amino]cyclopropyl}-phenyl)benzamide], the IC50 was above 10 µM at MAO-A, above 10 µM on MAO-B and 0.1 µM on human LSD1(171-852).
Consider `O=C(Nc1ccc([C@@H]2C[C@H]2NCC2CC2)cc1)c1ccc2ncsc2c1` (relative stereo) [Example 90, N-(4-{trans-2-[(cyclopropylmethyl)amino]cyclopropyl}-phenyl)-1,3-benzothiazole-6-carboxamide], for which the IC50 was above 10 µM at MAO-A, above 10 µM against MAO-B and below 0.1 µM on human LSD1(171-852).
In the case of `CS(=O)(=O)c1cccc(C(=O)Nc2ccc([C@@H]3C[C@H]3NCC3CC3)cc2)c1` (relative stereo) [Example 91, N-(4-{trans-2-[(cyclopropylmethyl)amino]cyclopropyl}-phenyl)-3-(methylsulfonyl)-benzamide], the IC50 is above 10 µM at MAO-A, above 10 µM against MAO-B and below 0.1 µM at human LSD1(171-852).
Regarding `O=C(Nc1ccc([C@@H]2C[C@H]2NCC2CC2)cc1)c1ccc(-n2ccnc2)cc1` (relative stereo) [Example 92, N-(4-{trans-2-[(cyclopropylmethyl)-amino]cyclopropyl}-phenyl)-4-(1H-imidazol-1-yl)benzamide], the IC50 is 7.9 µM at MAO-A, above 10 µM against MAO-B and below 0.1 µM at human LSD1(171-852).
For `O=C(Nc1ccc([C@@H]2C[C@H]2NCC2CC2)cc1)c1cc(-c2ccccc2)on1` (relative stereo) [Example 93, N-(4-{trans-2-[(cyclopropylmethyl)-amino]cyclopropyl}-phenyl)-5-phenyl-1,2-oxazole-3-carboxamide] the same measures were above 10 µM, above 10 µM and below 0.1 µM.
Turning to `O=C(Nc1ccc([C@@H]2C[C@H]2NCC2CC2)cc1)c1ccc(-n2cccn2)cc1` (relative stereo) [Example 94, N-(4-{trans-2-[(cyclopropylmethyl)-amino]cyclopropyl}-phenyl)-4-(1H-pyrazol-1-yl)benzamide], the IC50 was above 10 µM against MAO-A, above 10 µM on MAO-B and below 0.1 µM at human LSD1(171-852).

Source of the values: patent US9682925B2, “Cyclopropaneamine compound” (TAKEDA PHARMACEUTICAL COMPANY LIMITED, priority 2011, dated 2017).
